# Assay results published in PubChem BioAssay (NCI).
# Values joined by “and” are separate entries in the source; they are usually repeats but may differ in a detail not shown here. Equal values may be shown once.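 Grown in 96-well plates, cells were treated for 48 hours with each compound at five concentrations. Insufficient inhibition: endpoint recorded as highest concentration tested. At the GI50, growth is halved. TGI marks complete inhibition of growth.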
# Key:
# Experiment in all cases: inhibition of tumour cell growth, NCI panel, 48 h
# [1] = tested on: 786-0 renal
# [2] = tested on: A498 renal
# [3] = tested on: A549 NSCLC
# [4] = tested on: ACHN renal
# [5] = tested on: BT-549 breast
# [6] = tested on: CAKI-1 renal
# [7] = tested on: COLO 205 colon
# [8] = tested on: DU-145 prostate
# [9] = tested on: EKVX NSCLC
# [10] = tested on: HCT-116 colon
# [11] = tested on: HCT-15 colon
# [12] = tested on: HL-60(TB) leukemia
# [13] = tested on: HOP-62 NSCLC
# [14] = tested on: HOP-92 NSCLC
# [15] = tested on: HS 578T breast
# [16] = tested on: HT29 colon
# [17] = tested on: IGROV1 ovarian
# [18] = tested on: K-562 leukemia
# [19] = tested on: KM12 colon
# [20] = tested on: LOX IMVI melanoma
# [21] = tested on: MALME-3M melanoma
# [22] = tested on: MDA-MB-231 breast
# [23] = tested on: MDA-MB-435
# [24] = tested on: MOLT-4 leukemia
# [25] = tested on: NCI-H226 lung
# [26] = tested on: NCI-H23 lung
# [27] = tested on: NCI-H522 lung
# [28] = tested on: NCI/ADR-RES ovarian
# [29] = tested on: OVCAR-3 ovarian
# [30] = tested on: OVCAR-4 ovarian
# [31] = tested on: OVCAR-5 ovarian
# [32] = tested on: OVCAR-8 ovarian
# [33] = tested on: PC-3 prostate
# [34] = tested on: RPMI-8226 leukemia
# [35] = tested on: SF-268 CNS
# [36] = tested on: SF-295 CNS
# [37] = tested on: SF-539 CNS
# [38] = tested on: SK-MEL-2 melanoma
# [39] = tested on: SK-MEL-5 melanoma
# [40] = tested on: SK-OV-3 ovarian
# [41] = tested on: SN12C renal
# [42] = tested on: SNB-19 CNS
# [43] = tested on: SNB-75 CNS
# [44] = tested on: SR leukemia
# [45] = tested on: SW-620 colon
# [46] = tested on: T-47D breast
# [47] = tested on: TK-10 renal
# [48] = tested on: U251 CNS
# [49] = tested on: UACC-257 melanoma
# [50] = tested on: UACC-62 melanoma
# [51] = tested on: UO-31 renal
smiles,measurement,setting,value
COc1cc2c3c(n(CCCNCCN4CCOCC4)c(=O)c2cc1OC)-c1cc2c(cc1C3=O)OCO2,GI50,[1],1970 nM
same,TGI,[1],5.23 µM
same,GI50,[2],4.1 µM and 16 µM
same,TGI,[2],11.4 µM and 35.8 µM
same,GI50,[3],182 nM and 1370 nM
same,TGI,[3],5.42 µM
same,TGI,[4],658 nM and 2620 nM
same,GI50,[5],7.64 µM and 7.01 µM
same,TGI,[5],16.6 µM and 29.5 µM
same,GI50,[6],2610 nM
same,TGI,[6],19.4 µM
same,GI50,[7],2.01 µM and 7.31 µM
same,TGI,[7],50 µM and 45.8 µM
same,GI50,[8],678 nM
same,TGI,[8],3.8 µM
same,GI50,[9],8.93 µM and 7.24 µM
same,TGI,[9],18.2 µM and 18.6 µM
same,GI50,[10],< 5 nM
same,TGI,[10],97.5 nM
same,GI50,[11],453 nM and 2140 nM
same,GI50,[12],321 nM and 2700 nM
same,TGI,[13],790 nM and 1930 nM
same,GI50,[14],5.79 µM and 1.26 µM
same,TGI,[14],12.4 µM and 3.92 µM
same,GI50,[15],2.94 µM and 16.9 µM
same,TGI,[15],13.3 µM and 48 µM
same,GI50,[16],2200 nM and 1780 nM
same,TGI,[16],50 µM and > 100 µM
same,GI50,[17],6.92 µM and 2.12 µM
same,TGI,[17],23.5 µM and > 100 µM
same,GI50,[18],7.72 µM
same,TGI,[18],> 67.1 µM
same,GI50,[19],554 nM and 1480 nM
same,TGI,[19],1.6 µM and 4.69 µM
same,GI50,[20],1040 nM
same,TGI,[20],3.34 µM
same,GI50,[21],6.5 µM and 8.31 µM
same,TGI,[21],14.5 µM and 27.3 µM
same,GI50,[22],2180 nM
same,TGI,[22],5.72 µM
same,GI50,[23],1.93 µM and 4.36 µM
same,TGI,[23],10.3 µM and 19.2 µM
same,GI50,[24],< 5 nM
same,TGI,[24],19.7 µM
same,GI50,[25],15.1 µM
same,TGI,[25],53.8 µM
same,TGI,[26],529 nM and 3830 nM
same,GI50,[27],2150 nM
same,TGI,[27],> 100 µM
same,GI50,[28],110 nM
same,TGI,[28],690 nM
same,GI50,[29],528 nM and 600 nM
same,TGI,[29],1400 nM and 3270 nM
same,TGI,[30],50 µM and 12.2 µM
same,GI50,[31],913 nM and 2310 nM
same,TGI,[31],1.74 µM and 5.16 µM
same,GI50,[32],4.37 µM
same,TGI,[32],17.4 µM
same,GI50,[33],1900 nM and 1590 nM
same,TGI,[33],9.18 µM and 4.91 µM
same,GI50,[34],122 nM and 19.9 nM
same,TGI,[34],1140 nM and 681 nM
same,TGI,[35],8.09 µM and > 65.8 µM
same,GI50,[36],< 5 nM and 34.3 nM
same,TGI,[36],2130 nM and 1550 nM
same,GI50,[37],1080 nM
same,TGI,[37],3.88 µM
same,GI50,[38],7.78 µM and 3.92 µM
same,TGI,[38],14.7 µM and 19.7 µM
same,TGI,[39],7.74 µM and 20.2 µM
same,GI50,[40],4680 nM and 1270 nM
same,GI50,[41],1310 nM
same,TGI,[41],6.5 µM
same,GI50,[42],2230 nM and 770 nM
same,TGI,[42],50 µM and > 55.2 µM
same,GI50,[43],13.6 µM and 3.69 µM
same,TGI,[43],50 µM and 9.87 µM
same,GI50,[44],< 5 nM
same,GI50,[45],76.2 nM
same,TGI,[45],1330 nM
same,GI50,[46],2.56 µM and 23.5 µM
same,TGI,[46],50 µM and 70.2 µM
same,GI50,[47],7.2 µM and 7.5 µM
same,TGI,[47],14.8 µM and 23.5 µM
same,TGI,[48],959 nM and 4550 nM
same,GI50,[49],6.99 µM and 19.2 µM
same,TGI,[49],14.2 µM and 46.2 µM
same,GI50,[50],1380 nM
same,TGI,[50],7.58 µM
same,GI50,[51],5.98 µM and 2.19 µM
same,TGI,[51],15.2 µM and > 100 µM
